The values below come from publication PMC7083565, “In vitro metabolism, reaction phenotyping, enzyme kinetics, CYP inhibition and induction potential of ataluren” (Pharmacology Research & Perspectives, 2020).

Common to all, as to type: in vitro ADME
Series [1] in a line: Plasma protein binding (ultrafiltration), mouse. As to conditions: male, C57/BL10, 50 to 50 000 ng/mL, mean ± SD, n = 3, read-out: percentage protein binding (converted). As to the method:
[^14C]‐Ataluren, at 50, 500, 5000, and 50 000 ng/mL or 0.175, 1.75, 17.5, and 175 µM, in male mouse, rat, dog, monkey, and human plasma, was incubated (n = 3) at 37°C for approximately 15 minutes, transferred into Centrifree® Micropartition Units (30 000 Da molecular weight cutoff, 1 mL capacity; Amicon Inc), and centrifuged at 37°C and 2000 g for approximately 10 minutes so that the amount of the sample filtered was approximately ≤ 20% of the total volume. After centrifugation, the entire ultrafiltrate was weighed and analyzed for radioactivity using liquid scintillation counting. The percent bound = (1‐Cu/Cm)×100, where Cu is the concentration of radioactivity in the ultrafiltrate and Cm is the concentration of radioactivity in the plasma before centrifugation.

In the next series the test system is CYP2C19. Kind of series: CYP induction in primary human hepatocytes: CYP2C19. Particulars: male, 48 h. As for the experimental part: Human hepatocytes isolated from three Caucasian males were transferred to 48‐well collagen‐coated plates at 0.14 × 10^6 cells/well in planting media for attachment. After attachment, planting media was replaced with sandwich media and the cells were incubated until clusters were established. […] The incubation solutions were aspirated and replaced with freshly prepared incubation solutions containing ataluren for an additional 24 hours. […] The incubation solutions were then aspirated and 150 µL of K‐H buffer containing CYP substrates were added. […] Metabolite formation in incubations with test compounds and control inhibitors was assessed with validated LC‐MS/MS methods for each of the reaction products as described in Table S2. Enzymatic activity for each CYP was calculated using the absolute amount of metabolite formed (pmol) divided by hepatocytes in the incubation (million cells) and the incubation time (minute). The relative fold induction in enzymatic activity was calculated by comparing the rate of metabolite formation for treatment groups to that of the solvent control group (reported as vehicle control%) or positive control group (reported as positive control%).

For the next series, the target named is T1, CYP2B6 (Homo sapiens, UniProt P20813).
T1 construct: tissue XenoTech LLC, Celsis-In Vitro Technologies, or Tissue Transformation Technologies; host or cells: pooled human liver microsomes
T1 sequence (P20813 1-491): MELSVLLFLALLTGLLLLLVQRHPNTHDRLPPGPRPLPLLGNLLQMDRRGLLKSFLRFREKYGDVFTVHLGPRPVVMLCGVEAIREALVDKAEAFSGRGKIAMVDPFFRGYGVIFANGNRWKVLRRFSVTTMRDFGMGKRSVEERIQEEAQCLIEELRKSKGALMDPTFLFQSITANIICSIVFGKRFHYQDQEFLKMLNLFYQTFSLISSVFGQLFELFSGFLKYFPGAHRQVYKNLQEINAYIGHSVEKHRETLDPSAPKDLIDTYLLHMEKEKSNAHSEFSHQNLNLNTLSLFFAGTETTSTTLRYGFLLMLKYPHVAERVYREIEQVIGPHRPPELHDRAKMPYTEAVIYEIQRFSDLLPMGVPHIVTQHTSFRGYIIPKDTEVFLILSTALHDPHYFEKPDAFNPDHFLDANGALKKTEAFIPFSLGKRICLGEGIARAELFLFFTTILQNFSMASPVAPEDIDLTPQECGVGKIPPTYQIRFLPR
In words: CYP inhibition in pooled human liver microsomes: CYP2B6. Particulars: CYP2B6, HLM, estimated, concentrations up to 400 μmol/L. As to the method:
The final concentration of each probe substrate was near the experimentally determined Km value for the indicated enzyme. Ataluren or prototypical CYP inhibitors (positive controls) was incubated (n = 3) with probe substrates and HLM in 100 mmol/L phosphate buffer (pH 7.4) in a total volume of approximately 0.25 mL, and the reactions were initiated by the addition of 1 mmol/L NADPH at 37°C. The reactions were carried out using previously established conditions to ensure linearity with respect to protein concentration and incubation time (Table S1). Incubations were stopped with the addition of ice‐cold acetonitrile. Metabolite formation in incubations with test compound and control inhibitors was assessed with LC‐MS/MS methods for each of the reaction products as described in Table S2. […] After 7 minutes incubation at 37°C, the reaction was stopped by the addition of ice‐cold acetonitrile, followed by membrane plate filtration. The filtrates were used for LC‐MS/MS analysis. […] IC50 values were determined by nonlinear regression with GraphPad Prism 5 using the following four‐parameter sigmoidal‐logistic IC50 equation: Fit=background+range-background/[1+I/IC50^slope]
Where, I is the inhibitor concentration, and background was set to 0 and range to 100, as percent of control values are utilized. K i was determined by nonlinear regression with GraphPad Prism 5 using best fit model.

The IC50 is the concentration at which inhibition is half-maximal. `O=C(O)c1cccc(-c2noc(-c3ccccc3F)n2)c1` [ataluren, Ataluren]: in series [1], the fraction unbound at 15 min is 0.016. For the same compound, the “Vehicle control %, Mean” value is 112% with CYP2C19 (4 µM) and 99.0% in the series with CYP2C19 (400 µM). The IC50 on CYP2B6 is above 400 µM.
